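1) Cells in 96-well plates. 2) Compound, 48 h, 5 concentrations. 3) Linear interpolation between surrounding doses. 4) Unreached endpoint = highest concentration. Abbreviation: GI50, concentration required for 50% inhibition of growth.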 Calls of active or inactive are those of the source. Rule as the data show it: active = GI50 up to about 1.1 µM and inactive = higher.
Columns and labels:
Test in all cases: DTP human tumour cell line panel, 48 h
SK-MEL-28 = tested on: SK-MEL-28
SNB-19 = tested on: SNB-19
A498 = tested on: A498
BT-549 = tested on: BT-549
MDA-MB-435 = tested on: MDA-MB-435
NCI/ADR-RES = tested on: NCI/ADR-RES
NCI-H522 = tested on: NCI-H522
OVCAR-4 = tested on: OVCAR-4
HCT-15 = tested on: HCT-15
Hs-578T = tested on: Hs-578T
HL-60 = tested on: HL-60
HOP-92 = tested on: HOP-92
SF-295 = tested on: SF-295
RXF 393 = tested on: RXF 393
SF-268 = tested on: SF-268
DU-145 = tested on: DU-145
COLO 205 = tested on: COLO 205
OVCAR-8 = tested on: OVCAR-8
MOLT-4 = tested on: MOLT-4
T47D = tested on: T47D
RPMI-8226 = tested on: RPMI-8226
HCT-116 = tested on: HCT-116
CCRF-CEM = tested on: CCRF-CEM
K562 = tested on: K562
KM12 = tested on: KM12
786-0 = tested on: 786-0
SK-MEL-2 = tested on: SK-MEL-2
PC-3 = tested on: PC-3
NCI-H23 = tested on: NCI-H23
UACC-62 = tested on: UACC-62
MDA-MB-231 = tested on: MDA-MB-231
OVCAR-5 = tested on: OVCAR-5
CAKI-1 = tested on: CAKI-1
UO-31 = tested on: UO-31
EKVX = tested on: EKVX
IGROV-1 = tested on: IGROV-1
NCI-H460 = tested on: NCI-H460
A549 = tested on: A549
HT-29 = tested on: HT-29
SNB-75 = tested on: SNB-75
SK-OV-3 = tested on: SK-OV-3
M14 = tested on: M14
SW-620 = tested on: SW-620
SR = tested on: SR
SK-MEL-5 = tested on: SK-MEL-5
Malme-3M = tested on: Malme-3M
NCI-H226 = tested on: NCI-H226
ACHN = tested on: ACHN
LOX IMVI = tested on: LOX IMVI
MCF7 = tested on: MCF7
U-251 = tested on: U-251
HOP-62 = tested on: HOP-62
SN12C = tested on: SN12C
UACC-257 = tested on: UACC-257
OVCAR-3 = tested on: OVCAR-3
HCC 2998 = tested on: HCC 2998
SF-539 = tested on: SF-539
TK-10 = tested on: TK-10
MDA-N = tested on: MDA-N

With `CC1OC(OC2C(OC(=O)[C@]34CCC(C)(C)C[C@H]3C3=CC[C@@H]5[C@@]6(C)CC[C@H](OC7OC(C(=O)O)C(O)C(O)C7O)C(C)(C)[C@@H]6CC[C@@]5(C)[C@]3(C)C[C@H]4O)OCC(O)C2O)C(O)C(O)C1OC1OCC(OC2OCC(O)C(O)C2O)C(O)C1O` (some centres not stated) the GI50 (SK-MEL-28) was 3.44 µM (inactive), the GI50 (SNB-19) was 5.51 µM (inactive) and the GI50 (A498) was 1.48 µM (inactive). For the same compound, the GI50 (BT-549) was 3.28 µM (inactive), the GI50 (MDA-MB-435) was 4.59 µM (inactive) and the GI50 (NCI/ADR-RES) was 11.1 µM (inactive). The GI50 (NCI-H522) was 4.94 µM (inactive), the GI50 (OVCAR-4) was 5.32 µM (inactive) and the GI50 (HCT-15) was 14.7 µM. For the same compound, the GI50 (Hs-578T) was 19.1 µM (inactive), the GI50 (HL-60) was 3.96 µM (inactive) and the GI50 (HOP-92) was 6.01 µM (inactive). For the same compound, the GI50 (SF-295) was 10.2 µM (inactive), the GI50 (RXF 393) was 14.3 µM (inactive) and the GI50 (SF-268) was 12.6 µM (inactive). For the same compound, the GI50 (DU-145) was 11.3 µM (inactive), the GI50 (COLO 205) was 1.89 µM (inactive) and the GI50 (OVCAR-8) was 15.9 µM (inactive). The GI50 (MOLT-4) was 14.8 µM (inactive), the GI50 (T47D) was 7.16 µM (inactive) and the GI50 (RPMI-8226) was 10.7 µM (inactive). The GI50 (HCT-116) was 4.66 µM (inactive), the GI50 (CCRF-CEM) was > 10 µM (inactive) and the GI50 (K562) was 11.4 µM (inactive). For the same compound, the GI50 (KM12) was 3.61 µM (inactive), the GI50 (786-0) was 11.1 µM (inactive) and the GI50 (SK-MEL-2) was 2.96 µM (inactive). The GI50 (PC-3) was 6.46 µM (inactive), the GI50 (NCI-H23) was 2.14 µM (inactive) and the GI50 (UACC-62) was 11 µM (inactive). For the same compound, the GI50 (MDA-MB-231) was 3.45 µM (inactive), the GI50 (OVCAR-5) was 6.75 µM (inactive) and the GI50 (CAKI-1) was 9.73 µM (inactive). The GI50 (UO-31) was 2.13 µM (inactive), the GI50 (EKVX) was 4.16 µM (inactive) and the GI50 (IGROV-1) was 12.8 µM (inactive). The GI50 (NCI-H460) was 16.4 µM (inactive), the GI50 (A549) was 3.9 µM (inactive) and the GI50 (HT-29) was 3.4 µM (inactive). The GI50 (SNB-75) was 13.2 µM (inactive), the GI50 (SK-OV-3) was 13.8 µM (inactive) and the GI50 (M14) was 3.52 µM (inactive). The GI50 (SW-620) was 10.9 µM (inactive), the GI50 (SR) was 7.23 µM (inactive) and the GI50 (SK-MEL-5) was 13.9 µM (inactive). The GI50 (Malme-3M) was 11.4 µM (inactive), the GI50 (NCI-H226) was 6.92 µM (inactive) and the GI50 (ACHN) was 4.72 µM (inactive). For the same compound, the GI50 (LOX IMVI) was 11.9 µM (inactive), the GI50 (MCF7) was 5.07 µM (inactive) and the GI50 (U-251) was 7.85 µM (inactive). The GI50 (HOP-62) was 13.2 µM (inactive), the GI50 (SN12C) was 2.42 µM (inactive) and the GI50 (UACC-257) was 8.63 µM (inactive). The GI50 (OVCAR-3) was 15.9 µM (inactive) and the GI50 (HCC 2998) was 1.53 µM (inactive).
`CC[C@@H]1CC[C@@H]2[C@H](CC[C@]3(C)[C@@H](OS(=O)(=O)c4ccc(C)cc4)CC[C@@H]23)[C@H]1COS(=O)(=O)c1ccc(C)cc1` was tested, and the GI50 (SK-MEL-28) was > 100 µM (inactive), the GI50 (SNB-19) was > 100 µM (inactive) and the GI50 (A498) was > 100 µM (inactive). The GI50 (SF-539) was > 100 µM (inactive), the GI50 (BT-549) was > 100 µM (inactive) and the GI50 (MDA-MB-435) was > 100 µM (inactive). For the same compound, the GI50 (NCI/ADR-RES) was > 100 µM (inactive), the GI50 (OVCAR-4) was > 100 µM (inactive) and the GI50 (HCT-15) was greater than 100 µM. For the same compound, the GI50 (Hs-578T) was > 100 µM (inactive), the GI50 (HL-60) was > 100 µM (inactive) and the GI50 (HOP-92) was > 100 µM (inactive). The GI50 (SF-295) was > 100 µM (inactive), the GI50 (RXF 393) was > 100 µM (inactive) and the GI50 (SF-268) was > 100 µM (inactive). The GI50 (DU-145) was > 100 µM (inactive), the GI50 (OVCAR-8) was > 100 µM (inactive) and the GI50 (MOLT-4) was > 100 µM (inactive). For the same compound, the GI50 (RPMI-8226) was > 100 µM (inactive), the GI50 (TK-10) was > 100 µM (inactive) and the GI50 (HCT-116) was > 100 µM (inactive). The GI50 (CCRF-CEM) was > 100 µM (inactive), the GI50 (K562) was > 100 µM (inactive) and the GI50 (786-0) was > 100 µM (inactive). For the same compound, the GI50 (PC-3) was > 100 µM (inactive), the GI50 (UO-31) was 51.4 µM (inactive) and the GI50 (EKVX) was > 100 µM (inactive). The GI50 (IGROV-1) was > 100 µM (inactive), the GI50 (NCI-H460) was > 100 µM (inactive) and the GI50 (A549) was > 100 µM (inactive). The GI50 (HT-29) was > 100 µM (inactive), the GI50 (M14) was > 100 µM (inactive) and the GI50 (SW-620) was > 100 µM (inactive). For the same compound, the GI50 (SR) was > 100 µM (inactive), the GI50 (SK-MEL-5) was > 100 µM (inactive) and the GI50 (Malme-3M) was > 100 µM (inactive). For the same compound, the GI50 (NCI-H226) was > 100 µM (inactive), the GI50 (ACHN) was > 100 µM (inactive) and the GI50 (LOX IMVI) was > 100 µM (inactive). For the same compound, the GI50 (MCF7) was > 100 µM (inactive), the GI50 (U-251) was > 100 µM (inactive) and the GI50 (SN12C) was > 100 µM (inactive). For the same compound, the GI50 (UACC-257) was > 100 µM (inactive), the GI50 (MDA-N) was > 100 µM (inactive) and the GI50 (HCC 2998) was > 100 µM (inactive).
In the case of `C=CCOn1c(C=C)nc2c(C)cccc21`, the GI50 (SK-MEL-28) is reported as 10.6 µM (inactive), the GI50 (SNB-19) is reported as 5.2 µM (inactive) and the GI50 (A498) is reported as 5.66 µM (inactive). For the same compound, the GI50 (BT-549) was 5.16 µM (inactive), the GI50 (MDA-MB-435) was 1.63 µM (inactive) and the GI50 (NCI/ADR-RES) was 3.12 µM (inactive). For the same compound, the GI50 (NCI-H522) was 2.29 µM (inactive), the GI50 (OVCAR-4) was 8.89 µM (inactive) and the GI50 (HCT-15) was 3.07 µM. The GI50 (Hs-578T) was 4.98 µM (inactive), the GI50 (HL-60) was 1.98 µM (inactive) and the GI50 (HOP-92) was 8.32 µM (inactive). The GI50 (SF-295) was 5.58 µM (inactive), the GI50 (SF-268) was 3.89 µM (inactive) and the GI50 (COLO 205) was 1.95 µM (inactive). For the same compound, the GI50 (OVCAR-8) was 2.85 µM (inactive), the GI50 (MOLT-4) was 3.64 µM (inactive) and the GI50 (T47D) was 1.99 µM (inactive). For the same compound, the GI50 (RPMI-8226) was 2.43 µM (inactive), the GI50 (TK-10) was 2.63 µM (inactive) and the GI50 (HCT-116) was 2.01 µM (inactive). For the same compound, the GI50 (CCRF-CEM) was 1.33 µM (inactive), the GI50 (K562) was 3.57 µM (inactive) and the GI50 (KM12) was 3.41 µM (inactive). For the same compound, the GI50 (786-0) was 2.18 µM (inactive), the GI50 (SK-MEL-2) was 2.21 µM (inactive) and the GI50 (PC-3) was 3.08 µM (inactive). The GI50 (NCI-H23) was 7.74 µM (inactive), the GI50 (UACC-62) was 2.56 µM (inactive) and the GI50 (MDA-MB-231) was 3.83 µM (inactive). The GI50 (OVCAR-5) was 7.03 µM (inactive), the GI50 (CAKI-1) was 2.06 µM (inactive) and the GI50 (UO-31) was 2.43 µM (inactive). The GI50 (EKVX) was 13.5 µM (inactive), the GI50 (IGROV-1) was 7.35 µM (inactive) and the GI50 (NCI-H460) was 2.32 µM (inactive). The GI50 (A549) was 3.38 µM (inactive), the GI50 (HT-29) was 3.36 µM (inactive) and the GI50 (SNB-75) was 3.59 µM (inactive). The GI50 (SK-OV-3) was 2.4 µM (inactive), the GI50 (M14) was 3.61 µM (inactive) and the GI50 (SW-620) was 3.2 µM (inactive). The GI50 (SR) was 2.46 µM (inactive), the GI50 (SK-MEL-5) was 3.89 µM (inactive) and the GI50 (Malme-3M) was 11.6 µM (inactive). The GI50 (NCI-H226) was 5.47 µM (inactive), the GI50 (ACHN) was 2.62 µM (inactive) and the GI50 (LOX IMVI) was 2.9 µM (inactive). For the same compound, the GI50 (MCF7) was 2.92 µM (inactive), the GI50 (U-251) was 1.98 µM (inactive) and the GI50 (HOP-62) was 3.77 µM (inactive). For the same compound, the GI50 (SN12C) was 3.63 µM (inactive), the GI50 (UACC-257) was 2.99 µM (inactive) and the GI50 (MDA-N) was 3.13 µM (inactive). For the same compound, the GI50 (OVCAR-3) was 2.48 µM (inactive) and the GI50 (HCC 2998) was 6.08 µM (inactive).
